What is called inhibition is the share of the control response that was lost under treatment. Low readings indicate a weak effect, high ones a strong effect.

This assay addresses T1, HIPK1 (Myak) (Homo sapiens, UniProt Q86Z02).
T1 construct: purchased Thermo Fisher Scientific (Life Technologies) SelectScreen
In words: SelectScreen Z'LYTE. Format: biochemical. In short, it runs like this:
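Percent values come from Thermo SelectScreen profiling of NU5455, combining activity and binding assays. CSF1R was run in Z'LYTE format at Km app ATP, and CAMK1 in Adapta format with ATP listed at 10.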

T1 sequence (Q86Z02 whole entry): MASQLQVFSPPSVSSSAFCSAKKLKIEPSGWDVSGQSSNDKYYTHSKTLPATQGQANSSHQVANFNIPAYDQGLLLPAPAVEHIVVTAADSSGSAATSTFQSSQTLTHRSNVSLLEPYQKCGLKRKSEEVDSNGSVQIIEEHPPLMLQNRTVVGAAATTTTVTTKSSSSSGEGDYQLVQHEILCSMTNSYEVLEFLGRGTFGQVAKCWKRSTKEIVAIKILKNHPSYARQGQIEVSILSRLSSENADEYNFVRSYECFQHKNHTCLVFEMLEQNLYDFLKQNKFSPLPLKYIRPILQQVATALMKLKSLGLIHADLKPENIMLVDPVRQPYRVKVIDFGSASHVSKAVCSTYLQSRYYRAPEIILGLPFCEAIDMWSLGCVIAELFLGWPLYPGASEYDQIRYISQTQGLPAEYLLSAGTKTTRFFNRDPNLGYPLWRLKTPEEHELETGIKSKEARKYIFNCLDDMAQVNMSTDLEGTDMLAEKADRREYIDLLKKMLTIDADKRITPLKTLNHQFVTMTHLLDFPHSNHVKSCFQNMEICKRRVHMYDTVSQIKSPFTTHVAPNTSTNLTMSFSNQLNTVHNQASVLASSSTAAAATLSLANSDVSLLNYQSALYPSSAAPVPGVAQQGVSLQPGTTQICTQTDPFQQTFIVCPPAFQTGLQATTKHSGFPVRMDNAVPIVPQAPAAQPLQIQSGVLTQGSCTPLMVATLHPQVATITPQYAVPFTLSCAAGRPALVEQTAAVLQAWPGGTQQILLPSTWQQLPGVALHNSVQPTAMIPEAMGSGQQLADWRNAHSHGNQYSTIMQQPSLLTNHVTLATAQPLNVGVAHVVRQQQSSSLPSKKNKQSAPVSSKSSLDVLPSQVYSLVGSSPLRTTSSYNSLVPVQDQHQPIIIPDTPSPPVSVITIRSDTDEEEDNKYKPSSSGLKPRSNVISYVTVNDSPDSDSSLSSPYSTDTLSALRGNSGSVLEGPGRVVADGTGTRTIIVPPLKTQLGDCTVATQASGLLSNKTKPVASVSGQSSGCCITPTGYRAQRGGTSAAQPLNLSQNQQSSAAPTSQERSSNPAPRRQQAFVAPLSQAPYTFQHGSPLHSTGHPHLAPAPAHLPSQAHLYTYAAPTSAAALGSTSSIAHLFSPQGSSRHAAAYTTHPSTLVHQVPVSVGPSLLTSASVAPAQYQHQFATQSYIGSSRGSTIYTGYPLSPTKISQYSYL

As for `CN(C(=O)CN1CCOCC1)c1ccc2sc3c(-c4cccc5c(=O)cc(N6CC7CCC(C6)O7)oc45)cccc3c2c1` [NU5455], the inhibition at 1 µM is 2.8%.

Values taken from article PMC6934184, “Selective DNA-PKcs inhibition extends the therapeutic index of localized radiotherapy and chemotherapy” (The Journal of Clinical Investigation, 2019).
